Reference: PMC10082216 (Nature Communications, 2023)
Like-named read-outs stand apart in the source and are kept apart here.

Test: TD-6450 phase I clinical study (SAD/MAD): pharmacokinetics
Type: in vivo, human
Conditions: human; for TD-6450 Concentration (ng/ml), Female subjects: in vivo; for TD-6450 Concentration (ng/ml), Female subjects / concentration at 1 h / concentration at 2 h / concentration at 3 h / concentration at 4 h / concentration at 6 h / concentration at 8 h / concentration at 12 h / concentration at 15 min / concentration at 24 h / concentration at 30 min / concentration at 48 h / concentration at 72 h / concentration at 96 h / concentration at 120 h / concentration at 144 h / concentration at 168 h: female; for concentration at 1 h / concentration at 2 h / concentration at 3 h / concentration at 4 h / concentration at 6 h / concentration at 8 h / concentration at 12 h / concentration at 15 min / concentration at 24 h / concentration at 30 min / concentration at 48 h / concentration at 72 h / concentration at 96 h / concentration at 120 h / concentration at 144 h / concentration at 168 h: Female subjects, read-out: Concentration
Description: Primary and secondary outcomes were pre-defined as follows: Safety and tolerability as a primary outcome, pharmacokinetics as a secondary outcome. Safety and tolerability were evaluated using standard measures, including adverse event (AE) monitoring, clinical laboratory tests (hematology, serum chemistry, coagulation, and urinalysis), vital signs, physical examinations, and 12-lead electrocardiograms (ECGs). […]
This study was conducted in two parts, Part A (SAD) and Part B (MAD). For the Part A, the age of enrolled subjects ranged from 20 to 60 years, with a mean age range of 32.1 to 46.2 years. Most subjects were male (73 total subjects) and most were white (55 subjects) or black (22 subjects). For Part B of the study, ages ranged from 23 to 60 years with a similar mean age across treatment groups. Most subjects were male (25 total subjects) and all were either white (18 subjects) or black (12 subjects). For each part of the study, the mean body mass index (BMI) and creatinine clearance were similar across treatment groups. […] Part A: Healthy subjects were sequentially enrolled and randomly assigned to each dose cohort (up to 10 dose-ascending cohorts were planned, including a fed arm in the food effect cohort) to receive either a single dose of TD-6450 or placebo. For each dose cohort, 8 subjects were randomized in a 3:1 ratio (6 subjects received TD-6450 and 2 subjects received placebo). The starting dose of TD-6450 was 0.5 mg with a planned maximum dose of 1000 mg. Upon review of the 500-mg cohort PK data, the decision was made to not escalate to the 1000-mg cohort because of exposure saturation at ≥ 500 mg. The following doses were administered: 0.5 mg, 1.5 mg, 5 mg, 15 mg, 30 mg, 60 mg, 120 mg, 240 mg, and 500 mg. Part B: Healthy subjects were sequentially enrolled in 3 ascending dose cohorts (TD-6450 60 mg, 120 mg, and 240 mg) and randomly assigned to receive either TD-6450 or placebo as once daily doses for 14 days. For each dose cohort, 10 subjects were randomized in a 4:1 ratio (8 subjects received TD-6450 and 2 subjects received placebo). Blinded safety, tolerability, and available PK data after each dose cohort were reviewed by the Safety Data Review Committee (SDRC) before escalation to the next dosing cohort for both part A and B. Subjects of the clinical study were randomly assigned to each cohort. Randomizations codes were assigned to the subjects. All study subjects, study investigators, and the sponsor’s staff involved in the conduct of the study were blinded to treatment assignment. The only personnel who had access to the randomization code before database lock were: The pharmacist or pharmacy staff member who prepared drug or placebo capsules for administration to the subject according to the randomization code and the bioanalytical contract laboratory that analyzed the PK samples (plasma and urine).

Compound `CNC(=O)N1C[C@@H](C)N(c2ccc(C(=O)Nc3ccc(-c4ccc(-c5c[nH]c([C@@H]6CCCN6C(=O)[C@@H](NC(=O)OC)C(C)C)n5)cc4)c(OC(F)(F)F)c3)cn2)C[C@@H]1C` [TD-6450] has a Cmax at 1 day (both sexes, plasma, oral, 120 mg, MAD 120 mg, day 1, read-out: Cmax Mean ± SD, D1) of 0.216 ± 0.058 µM, a Cmax at 14 day (both sexes, plasma, oral, 120 mg, MAD 120 mg, day 14, read-out: Cmax Mean ± SD, D14) of 1.01 ± 0.349 µM and a half-life at 14 day (both sexes, plasma, oral, 120 mg, MAD 120 mg, day 14, read-out: t1/2 Mean ± SD, D14 (converted)) of 66.4 ± 15 h. It also gave a Cmax (both sexes, plasma, oral, 120 mg, SAD 120 mg, read-out: Cmax Mean ± SD) of 0.174 ± 0.0939 µM, a half-life (both sexes, plasma, oral, 120 mg, SAD 120 mg, read-out: t1/2 Mean ± SD (converted)) of 78.4 ± 13 h and a Cmax (both sexes, plasma, oral, 240 mg, MAD 240 mg, day 1, read-out: Cmax Mean ± SD, D1) of 0.459 ± 0.203 µM. It also gave a Cmax (both sexes, plasma, oral, 240 mg, MAD 240 mg, day 14, read-out: Cmax Mean ± SD, D14) of 1.77 ± 0.218 µM, a half-life (both sexes, plasma, oral, 240 mg, MAD 240 mg, day 14, read-out: t1/2 Mean ± SD, D14 (converted)) of 59.8 ± 12 h and a Cmax (both sexes, plasma, oral, 240 mg, SAD 240 mg, read-out: Cmax Mean ± SD) of 0.278 ± 0.134 µM. The half-life (both sexes, plasma, oral, 240 mg, SAD 240 mg, read-out: t1/2 Mean ± SD (converted)) was 64.7 ± 7.7 h, the Cmax (both sexes, plasma, oral, 500 mg, SAD 500 mg, read-out: Cmax Mean ± SD) was 0.244 ± 0.114 µM and the half-life (both sexes, plasma, oral, 500 mg, SAD 500 mg, read-out: t1/2 Mean ± SD (converted)) was 54.9 ± 5.5 h. The “TD-6450 Concentration (ng/ml), Female subjects” value (shortened to “TD-6450 Concentration (ng/ml)”) (4 h) was 48.60 ng/mL, the “TD-6450 Concentration (ng/ml)” value (6 h) was 213.00 ng/mL and the “TD-6450 Concentration (ng/ml)” value (8 h) was 215.00 ng/mL. It also gave a concentration at 1 h (plasma, oral, 0.5 mg, SAD arm NCT02022306, Dose 0.50, 1 Hour) of 0 ng/mL, a concentration at 2 h (plasma, oral, 0.5 mg, SAD arm NCT02022306, Dose 0.50, 2 Hours) of 0 ng/mL and a concentration at 3 h (plasma, oral, 0.5 mg, SAD arm NCT02022306, Dose 0.50, 3 Hours) of 0.52 ng/mL. The concentration at 4 h (plasma, oral, 0.5 mg, SAD arm NCT02022306, Dose 0.50, 4 Hours) was 0.48 ng/mL, the concentration at 6 h (plasma, oral, 0.5 mg, SAD arm NCT02022306, Dose 0.50, 6 Hours) was 0.67 ng/mL and the concentration at 8 h (plasma, oral, 0.5 mg, SAD arm NCT02022306, Dose 0.50, 8 Hours) was 0.31 ng/mL. The concentration at 12 h (plasma, oral, 0.5 mg, SAD arm NCT02022306, Dose 0.50, 12 Hours) was 0 ng/mL, the concentration at 15 min (plasma, oral, 0.5 mg, SAD arm NCT02022306, Dose 0.50, 15 Minutes) was 0 µg/mL and the concentration at 24 h (plasma, oral, 0.5 mg, SAD arm NCT02022306, Dose 0.50, 24 Hours) was 0 ng/mL. The concentration at 30 min (plasma, oral, 0.5 mg, SAD arm NCT02022306, Dose 0.50, 30 Minutes) was 0 µg/mL, the concentration at 48 h (plasma, oral, 0.5 mg, SAD arm NCT02022306, Dose 0.50, 48 Hours) was 0.26 ng/mL and the concentration at 72 h (plasma, oral, 0.5 mg, SAD arm NCT02022306, Dose 0.50, 72 Hours) was 0.28 ng/mL. The concentration at 96 h (plasma, oral, 0.5 mg, SAD arm NCT02022306, Dose 0.50, 96 Hours) was 0 ng/mL, the concentration at 120 h (plasma, oral, 0.5 mg, SAD arm NCT02022306, Dose 0.50, 120 Hours) was 0 ng/mL and the concentration at 144 h (plasma, oral, 0.5 mg, SAD arm NCT02022306, Dose 0.50, 144 Hours) was 0 ng/mL. The concentration at 168 h (plasma, oral, 0.5 mg, SAD arm NCT02022306, Dose 0.50, 168 Hours) was 0 ng/mL, the concentration at 1 h (plasma, oral, 5 mg, SAD arm NCT02022306, Dose 5.00, 1 Hour) was 0.91 ng/mL and the concentration at 2 h (plasma, oral, 5 mg, SAD arm NCT02022306, Dose 5.00, 2 Hours) was 2.32 ng/mL. The concentration at 3 h (plasma, oral, 5 mg, SAD arm NCT02022306, Dose 5.00, 3 Hours) was 3.81 ng/mL, the concentration at 4 h (plasma, oral, 5 mg, SAD arm NCT02022306, Dose 5.00, 4 Hours) was 4.11 ng/mL and the concentration at 6 h (plasma, oral, 5 mg, SAD arm NCT02022306, Dose 5.00, 6 Hours) was 4.27 ng/mL. For the same compound, the concentration at 8 h (plasma, oral, 5 mg, SAD arm NCT02022306, Dose 5.00, 8 Hours) was 3.7 ng/mL, the concentration at 12 h (plasma, oral, 5 mg, SAD arm NCT02022306, Dose 5.00, 12 Hours) was 3.01 ng/mL and the concentration at 15 min (plasma, oral, 5 mg, SAD arm NCT02022306, Dose 5.00, 15 Minutes) was 0 µg/mL. For the same compound, the concentration at 24 h (plasma, oral, 5 mg, SAD arm NCT02022306, Dose 5.00, 24 Hours) was 2.55 ng/mL, the concentration at 30 min (plasma, oral, 5 mg, SAD arm NCT02022306, Dose 5.00, 30 Minutes) was 0 µg/mL and the concentration at 48 h (plasma, oral, 5 mg, SAD arm NCT02022306, Dose 5.00, 48 Hours) was 2.13 ng/mL. It also gave a concentration at 72 h (plasma, oral, 5 mg, SAD arm NCT02022306, Dose 5.00, 72 Hours) of 1.75 ng/mL, a concentration at 96 h (plasma, oral, 5 mg, SAD arm NCT02022306, Dose 5.00, 96 Hours) of 1.15 ng/mL and a concentration at 144 h (plasma, oral, 5 mg, SAD arm NCT02022306, Dose 5.00, 144 Hours) of 0.77 ng/mL. The concentration at 168 h (plasma, oral, 5 mg, SAD arm NCT02022306, Dose 5.00, 168 Hours) was 0.61 ng/mL, the concentration at 1 h (plasma, oral, 15 mg, SAD arm NCT02022306, Dose 15.00, 1 Hour) was 1.46 ng/mL and the concentration at 2 h (plasma, oral, 15 mg, SAD arm NCT02022306, Dose 15.00, 2 Hours) was 10.1 ng/mL. It also gave a concentration at 3 h (plasma, oral, 15 mg, SAD arm NCT02022306, Dose 15.00, 3 Hours) of 13.9 ng/mL, a concentration at 4 h (plasma, oral, 15 mg, SAD arm NCT02022306, Dose 15.00, 4 Hours) of 18 ng/mL and a concentration at 6 h (plasma, oral, 15 mg, SAD arm NCT02022306, Dose 15.00, 6 Hours) of 18.1 ng/mL. It also gave a concentration at 8 h (plasma, oral, 15 mg, SAD arm NCT02022306, Dose 15.00, 8 Hours) of 15.1 ng/mL, a concentration at 12 h (plasma, oral, 15 mg, SAD arm NCT02022306, Dose 15.00, 12 Hours) of 10.7 ng/mL and a concentration at 15 min (plasma, oral, 15 mg, SAD arm NCT02022306, Dose 15.00, 15 Minutes) of 0 µg/mL. It also gave a concentration at 24 h (plasma, oral, 15 mg, SAD arm NCT02022306, Dose 15.00, 24 Hours) of 9.09 ng/mL, a concentration at 30 min (plasma, oral, 15 mg, SAD arm NCT02022306, Dose 15.00, 30 Minutes) of 0 µg/mL and a concentration at 48 h (plasma, oral, 15 mg, SAD arm NCT02022306, Dose 15.00, 48 Hours) of 6.98 ng/mL. It also gave a concentration at 72 h (plasma, oral, 15 mg, SAD arm NCT02022306, Dose 15.00, 72 Hours) of 5.88 ng/mL, a concentration at 96 h (plasma, oral, 15 mg, SAD arm NCT02022306, Dose 15.00, 96 Hours) of 5.19 ng/mL and a concentration at 120 h (plasma, oral, 15 mg, SAD arm NCT02022306, Dose 15.00, 120 Hours) of 4.42 ng/mL.
